Laboratory results reported in patent US8536202B2, “Triazole-substituted anthranilamides as pesticides” (Bayer Cropscience AG, priority 2010, dated 2013).
Like-named read-outs stand apart in the source and are kept apart here.

Columns and labels:
[1] = test system: green peach aphid (Myzus persicae); assay: Myzus test (MYZUPE spray treatment), Use Example 4; format: in vivo; conditions: 144 h, after 6 days; for pest or weed control at 100 g/ha: read-out: activity in %
Procedure: Solvents: 78 parts by weight of acetone • • 1.5 parts by weight of dimethylformamide
Emulsifier: 0.5 part by weight of alkylaryl polyglycol ether
An appropriate preparation of active compound is prepared by mixing 1 part by weight of active compound with the stated amounts of solvents and emulsifier and diluting the concentrate with emulsifier-containing water to the desired concentration.
Leaf discs of Chinese cabbage (Brassica pekinensis) infested by all stages of the green peach aphid (Myzus persicae) are sprayed with a preparation of active compound at the desired concentration.
After 6 days, the activity in % is ascertained. Here, 100% means that all of the aphids have been killed; 0% means that no aphids have been killed.

[2] = test system: larvae of the mustard beetle (Phaedon cochleariae); assay: Phaedon test (PHAECO spray treatment); format: in vivo; conditions: 168 h, 100 g/ha, after 7 days, read-out: activity in %
Outline: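 Compound dissolved in acetone/dimethylformamide with alkylaryl polyglycol ether emulsifier, then diluted with emulsifier-containing water to test concentration for spray treatment of Phaedon cochleariae larvae. Activity scored after 7 days as % larvae killed (100% = all dead, 0% = none).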

[3] = test system: caterpillars of the armyworm (Spodoptera frugiperda); assay: Spodoptera frugiperda test (SPODFR spray treatment); format: in vivo; conditions: 168 h, 100 g/ha, after 7 days, read-out: activity in %
Outline: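 Maize leaf discs sprayed with compound diluted in emulsifier-containing water (acetone/DMF solvent, alkylaryl polyglycol ether emulsifier), dried, then infested with armyworm caterpillars. Kill scored after 7 days as % mortality, 100% = all caterpillars dead, 0% = none.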

[4] = log P determination by HPLC on reversed-phase columns (EEC Directive 79/831 Annex V.A8); format: physicochemical; conditions: pH 2.7
Outline: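 log P from reversed-phase LC-MS retention at pH 2.7, 0.1% formic acid water/acetonitrile gradient 10–95% acetonitrile. Calibrated against C3–C16 unbranched alkan-2-ones, interpolating linearly between adjacent alkanones.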

| SMILES | pest or weed control at 100 g/ha [1] [%] | pest or weed control at 100 g/ha [2] [%] | pest or weed control at 100 g/ha [3] [%] | chromatographic logP [4] | chromatographic logP ([4]; reversed-phase C18 HPLC column, HPLC on reversed-phase columns (C 18), EEC Directive 79/831 Annex V.A8, read-out: logP) | pest or weed control at 20 g/ha ([1]; 20 g/ha) [%] |
| --- | --- | --- | --- | --- | --- | --- |
| Cc1cc(C#N)cc(C(=O)NC(C)(C)C)c1NC(=O)c1cc(Cn2cc(-c3ccc(F)cc3)nn2)nn1-c1ncccc1Cl [Example 53] | 80 | 100 | 100 | 3.17 | – | – |
| Cc1cc(C#N)cc(C(=O)NC(C)(C)C)c1NC(=O)c1cc(Cn2cc(-c3ccc(Cl)cc3)nn2)nn1-c1ncccc1Cl [Example 54] | 80 | 100 | 100 | 3.54 | – | – |
| CNC(=O)c1cc(C#N)cc(C)c1NC(=O)c1cc(Cn2nnc3cc(C(F)(F)F)ccc32)nn1-c1ncccc1Cl [Example 101] | 100 | 100 | 100 | 2.76 | – | – |
| Cc1cc(C#N)cc(C(=O)NC(C)(C)C)c1NC(=O)c1cc(Cn2nnc3c(Cl)cc(C(F)(F)F)cc32)nn1-c1ncccc1Cl [Example 110] | 90 | 100 | 100 | – | 3.96 | – |
| Cc1cc(Cl)cc(C(=O)NC2CC2)c1NC(=O)c1cc(Cn2nccn2)nn1-c1ncccc1Cl [Example 120] | 90 | 100 | 100 | 2.26 | – | – |
| Cc1cc(Cl)cc(C(=O)NC(C)(C)C)c1NC(=O)c1cc(Cn2nccn2)nn1-c1ncccc1Cl [Example 121] | 100 | 100 | 100 | 2.87 | – | – |
| Cc1cc(C#N)cc(C(N)=O)c1NC(=O)c1cc(Cn2ncc(C(F)(F)F)n2)nn1-c1ncccc1Cl [Example 123] | – | 100 | 100 | 2.41 | – | 100 |
| Cc1cc(C#N)cc(C(=O)NC(C)C2CC2)c1NC(=O)c1cc(Cn2ncc(C(F)(F)F)n2)nn1-c1ncccc1Cl (stereo not drawn) [Example 125] | 100 | 100 | 100 | 3.39 | – | – |
| Cc1cc(C#N)cc(C(=O)NC2CC2)c1NC(=O)c1cc(Cn2ncc(C(F)(F)F)n2)nn1-c1ncccc1Cl [Example 126] | 100 | 100 | 83 | 2.9 | – | – |
| CCNC(=O)c1cc(C#N)cc(C)c1NC(=O)c1cc(Cn2ncc(C(F)(F)F)n2)nn1-c1ncccc1Cl [Example 127] | 90 | 100 | 100 | 2.88 | – | – |
| Cc1cc(C#N)cc(C(=O)NCC2CC2)c1NC(=O)c1cc(Cn2ncc(C(F)(F)F)n2)nn1-c1ncccc1Cl [Example 130] | 100 | 100 | 100 | 3.17 | – | – |
| Cc1cc(C#N)cc(C(=O)NC2CCC2)c1NC(=O)c1cc(Cn2ncc(C(F)(F)F)n2)nn1-c1ncccc1Cl [Example 131] | 90 | 100 | 100 | 3.23 | – | – |
| Cc1cc(C#N)cc(C(=O)NCC#N)c1NC(=O)c1cc(Cn2ncc(C(F)(F)F)n2)nn1-c1ncccc1Cl [Example 132] | 100 | 100 | 100 | 2.76 | – | – |
| CSC[C@H](C)NC(=O)c1cc(C#N)cc(C)c1NC(=O)c1cc(Cn2ncc(C(F)(F)F)n2)nn1-c1ncccc1Cl [Example 133] | 90 | 100 | 100 | 3.33 | – | – |
| Cc1cc(Cl)cc(C(=O)NC2CC2)c1NC(=O)c1cc(Cn2ncc(C(F)(F)F)n2)nn1-c1ncccc1Cl [Example 137] | 100 | 100 | 100 | 3.18 | – | – |
| Cc1cc(Cl)cc(C(=O)NC(C)C)c1NC(=O)c1cc(Cn2ncc(C(F)(F)F)n2)nn1-c1ncccc1Cl [Example 139] | 90 | 100 | 100 | 3.48 | – | – |
| Cc1cc(Cl)cc(C(=O)NCC#N)c1NC(=O)c1cc(Cn2ncc(C(F)(F)F)n2)nn1-c1ncccc1Cl [Example 143] | 100 | 100 | 100 | 2.97 | – | – |
| CSC[C@H](C)NC(=O)c1cc(Cl)cc(C)c1NC(=O)c1cc(Cn2ncc(C(F)(F)F)n2)nn1-c1ncccc1Cl [Example 144] | 100 | 100 | 100 | 3.74 | – | – |
| CNC(=O)c1cc(Cl)cc(Cl)c1NC(=O)c1cc(Cn2ncc(C(F)(F)F)n2)nn1-c1ncccc1Cl [Example 146] | 100 | 100 | 100 | 2.98 | – | – |
| CC(C)NC(=O)c1cc(Cl)cc(Cl)c1NC(=O)c1cc(Cn2ncc(C(F)(F)F)n2)nn1-c1ncccc1Cl [Example 150] | 90 | 100 | 100 | 3.41 | – | – |
| Cc1cc(I)cc(C(N)=O)c1NC(=O)c1cc(Cn2ncc(C(F)(F)F)n2)nn1-c1ncccc1Cl [Example 156] | 100 | 100 | 100 | 2.89 | – | – |
| CNC(=O)c1cc(I)cc(C)c1NC(=O)c1cc(Cn2ncc(C(F)(F)F)n2)nn1-c1ncccc1Cl [Example 157] | 100 | 100 | 100 | 3.26 | – | – |
| Cc1cc(I)cc(C(=O)NCC#N)c1NC(=O)c1cc(Cn2ncc(C(F)(F)F)n2)nn1-c1ncccc1Cl [Example 165] | 100 | 100 | 100 | 3.11 | – | – |
| CSC[C@H](C)NC(=O)c1cc(I)cc(C)c1NC(=O)c1cc(Cn2ncc(C(F)(F)F)n2)nn1-c1ncccc1Cl [Example 166] | 100 | 100 | 100 | 3.98 | – | – |
| Cc1cc(F)cc(C(=O)NC(C)C)c1NC(=O)c1cc(Cn2ncc(C(F)(F)F)n2)nn1-c1ncccc1Cl [Example 170] | 100 | 100 | 100 | 3.08 | – | – |
| CNC(=O)c1cc(C#N)cc(C)c1NC(=O)c1cc(Cn2cc(C(F)(F)F)nn2)nn1-c1ncccc1Cl [Example 177] | 100 | 100 | 100 | 2.28 | – | – |
| Cc1cc(C#N)cc(C(=O)NC(C)C2CC2)c1NC(=O)c1cc(Cn2cc(C(F)(F)F)nn2)nn1-c1ncccc1Cl (stereo not drawn) [Example 178] | 100 | 100 | 100 | 2.95 | – | – |
